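Assay format: 96-well plates, 48-hour exposure. The concentration for 50% growth inhibition is given as GI50.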 The source made the active and inactive calls. No stated cut-off is given here; in the data, active = GI50 up to about 1.1 µM and inactive = higher.
What was measured:
Assay in all cases: NCI tumour cell line growth inhibition, 48 h
RXF 393 = test system: RXF 393
OVCAR-8 = test system: OVCAR-8
MOLT-4 = test system: MOLT-4
SW-620 = test system: SW-620
SK-MEL-2 = test system: SK-MEL-2
EKVX = test system: EKVX
ACHN = test system: ACHN
Hs-578T = test system: Hs-578T
OVCAR-4 = test system: OVCAR-4
UACC-257 = test system: UACC-257
RPMI-8226 = test system: RPMI-8226
NCI-H226 = test system: NCI-H226
HOP-92 = test system: HOP-92
NCI-H23 = test system: NCI-H23
HL-60 = test system: HL-60
SF-268 = test system: SF-268
OVCAR-5 = test system: OVCAR-5
A498 = test system: A498
HCC 2998 = test system: HCC 2998
MDA-MB-435 = test system: MDA-MB-435

SMILES	GI50 (RXF 393)	GI50 (OVCAR-8)	GI50 (MOLT-4)	GI50 (SW-620)	GI50 (SK-MEL-2)	GI50 (EKVX)	GI50 (ACHN)	GI50 (Hs-578T)	GI50 (OVCAR-4)	GI50 (UACC-257)	GI50 (RPMI-8226)	GI50 (NCI-H226)	GI50 (HOP-92)	GI50 (NCI-H23)	GI50 (HL-60)	GI50 (SF-268)	GI50 (OVCAR-5)	GI50 (A498)	GI50 (HCC 2998)	GI50 (MDA-MB-435)
O=C(O)c1oc(C(=O)O)c(C(=O)O)c1C(=O)O	> 100 µM (inactive)	> 100 µM (inactive)	> 100 µM (inactive)	> 100 µM (inactive)	> 100 µM (inactive)	> 100 µM (inactive)	> 100 µM (inactive)	> 100 µM (inactive)	> 100 µM (inactive)	> 100 µM (inactive)	> 100 µM (inactive)	58.9 µM (inactive)	> 100 µM (inactive)	> 100 µM (inactive)	> 100 µM (inactive)	> 100 µM (inactive)	> 100 µM (inactive)	> 100 µM (inactive)	–	–
O=C(O)CCCc1nc2c(n1-c1ccccc1)C(=O)c1ccccc1C2=O	–	53.5 µM (inactive)	68.4 µM (inactive)	> 100 µM (inactive)	97.9 µM (inactive)	62.8 µM (inactive)	68.1 µM (inactive)	> 100 µM (inactive)	23.9 µM (inactive)	33.2 µM (inactive)	40.7 µM (inactive)	–	49 µM (inactive)	65.8 µM (inactive)	37.4 µM (inactive)	38.1 µM (inactive)	> 100 µM (inactive)	> 100 µM (inactive)	91.8 µM (inactive)	–
COc1ccc(-c2c(C#N)c(O)n(C3OC(CO)C(O)C(O)C3O)c(=S)c2C#N)cc1 (stereo not drawn)	> 100 µM (inactive)	> 100 µM (inactive)	> 100 µM (inactive)	> 100 µM (inactive)	> 100 µM (inactive)	–	> 100 µM (inactive)	–	–	> 100 µM (inactive)	> 100 µM (inactive)	> 100 µM (inactive)	–	> 100 µM (inactive)	> 100 µM (inactive)	> 100 µM (inactive)	> 100 µM (inactive)	> 100 µM (inactive)	> 100 µM (inactive)	> 100 µM (inactive)
CC(C)=Cc1cc(C(=O)Nc2ccc(Cl)c(Cl)c2)nc(N)n1	> 100 µM (inactive)	> 100 µM (inactive)	> 100 µM (inactive)	> 100 µM (inactive)	> 100 µM (inactive)	> 100 µM (inactive)	> 100 µM (inactive)	–	> 100 µM (inactive)	> 100 µM (inactive)	> 100 µM (inactive)	> 100 µM (inactive)	> 100 µM (inactive)	> 100 µM (inactive)	> 100 µM (inactive)	> 100 µM (inactive)	> 100 µM (inactive)	> 100 µM (inactive)	> 100 µM (inactive)	–
COC(=O)/C=C(\C)CC/C=C(\C)CCC1OC1(C)C (stereo not drawn)	13.3 µM (inactive)	12.9 µM (inactive)	8.17 µM (inactive)	13.6 µM (inactive)	10.9 µM (inactive)	13 µM (inactive)	13 µM (inactive)	16.1 µM (inactive)	11.8 µM (inactive)	12.5 µM (inactive)	–	12.1 µM (inactive)	11.9 µM (inactive)	13.2 µM (inactive)	1.87 µM (inactive)	–	13.6 µM (inactive)	14.5 µM (inactive)	9.66 µM (inactive)	–
[N-]=[N+]=Nc1cc(=O)n(-c2ccccc2)c(=O)n1-c1ccccc1	> 100 µM (inactive)	> 100 µM (inactive)	> 100 µM (inactive)	> 100 µM (inactive)	> 100 µM (inactive)	> 100 µM (inactive)	> 100 µM (inactive)	> 100 µM (inactive)	> 100 µM (inactive)	> 100 µM (inactive)	> 100 µM (inactive)	> 100 µM (inactive)	> 100 µM (inactive)	> 100 µM (inactive)	–	> 100 µM (inactive)	> 100 µM (inactive)	–	–	> 100 µM (inactive)
O=C1C=Cc2noc3cccc1c23	2.52 µM (inactive)	2.88 µM (inactive)	0.836 µM (active)	4.01 µM (inactive)	7.4 µM (inactive)	3.9 µM (inactive)	2.76 µM (inactive)	–	2.07 µM (inactive)	12.6 µM (inactive)	2.01 µM (inactive)	19.1 µM (inactive)	2.28 µM (inactive)	8.97 µM (inactive)	1.05 µM (active)	3.15 µM (inactive)	14.5 µM (inactive)	13.6 µM (inactive)	14.7 µM (inactive)	–
O=C(N[C@@H]1C=CCC[C@@H]1c1ccccc1)OCc1ccccc1	20.3 µM (inactive)	20.1 µM (inactive)	13.1 µM (inactive)	22.9 µM (inactive)	16.3 µM (inactive)	23.2 µM (inactive)	24 µM (inactive)	–	18.6 µM (inactive)	17.5 µM (inactive)	18 µM (inactive)	19 µM (inactive)	16.5 µM (inactive)	22.8 µM (inactive)	11.6 µM (inactive)	25 µM (inactive)	17.8 µM (inactive)	19.1 µM (inactive)	20.6 µM (inactive)	–
COc1c(Br)cc(Br)c(OC)c1-c1[nH]c(Br)c(Br)c1Br	1.36 µM (inactive)	8.75 µM (inactive)	4.53 µM (inactive)	7.11 µM (inactive)	3.01 µM (inactive)	6.93 µM (inactive)	4.78 µM (inactive)	–	4.28 µM (inactive)	4.81 µM (inactive)	3.39 µM (inactive)	5.7 µM (inactive)	1.82 µM (inactive)	2.98 µM (inactive)	6.76 µM (inactive)	3.78 µM (inactive)	14.3 µM (inactive)	12.1 µM (inactive)	6.76 µM (inactive)	–
CCOC(=O)N/N=C(/N)c1cccc(Br)c1	> 100 µM (inactive)	> 100 µM (inactive)	> 100 µM (inactive)	–	> 100 µM (inactive)	83 µM (inactive)	> 100 µM (inactive)	> 100 µM (inactive)	> 100 µM (inactive)	> 100 µM (inactive)	–	–	–	> 100 µM (inactive)	> 100 µM (inactive)	> 100 µM (inactive)	> 100 µM (inactive)	–	> 100 µM (inactive)	–
Nc1ccc(C23CC4CC(C2)CC(c2ccc(N)cc2)(C4)C3)cc1	–	85.1 µM (inactive)	11.3 µM (inactive)	3.14 µM (inactive)	35.9 µM (inactive)	36.6 µM (inactive)	41.1 µM (inactive)	–	10.2 µM (inactive)	75.5 µM (inactive)	10.7 µM (inactive)	11.5 µM (inactive)	41.8 µM (inactive)	59.6 µM (inactive)	31 µM (inactive)	45.2 µM (inactive)	27.7 µM (inactive)	15.7 µM (inactive)	8.09 µM (inactive)	0.164 µM (active)
CCOC(=O)C(=O)C=P(c1ccccc1)(c1ccccc1)c1ccccc1	> 100 µM (inactive)	> 100 µM (inactive)	> 100 µM (inactive)	> 100 µM (inactive)	> 100 µM (inactive)	> 100 µM (inactive)	> 100 µM (inactive)	–	> 100 µM (inactive)	> 100 µM (inactive)	> 100 µM (inactive)	> 100 µM (inactive)	> 100 µM (inactive)	> 100 µM (inactive)	> 100 µM (inactive)	> 100 µM (inactive)	> 100 µM (inactive)	> 100 µM (inactive)	> 100 µM (inactive)	–
COC(=O)/C1=C/C=C\C[C@@]2(C)CC(c3ccoc3)OC(=O)[C@@H]2CC[C@H]1C (stereo partly drawn)	> 25 µM (inactive)	> 25 µM (inactive)	> 25 µM (inactive)	> 25 µM (inactive)	> 25 µM (inactive)	> 25 µM (inactive)	> 25 µM (inactive)	> 25 µM (inactive)	> 25 µM (inactive)	> 25 µM (inactive)	–	> 25 µM (inactive)	> 25 µM (inactive)	> 25 µM (inactive)	7.23 µM (inactive)	–	> 25 µM (inactive)	> 25 µM (inactive)	> 25 µM (inactive)	–
C=C1[C@@H](OC(C)=O)[C@H]2[C@@H](OC(C)=O)[C@@](C)(OC(C)=O)C[C@]2(OC(C)=O)C(=O)[C@@H](C)/C=C/C(C)(C)C(=O)C[C@H]1OC(C)=O	> 100 µM (inactive)	> 100 µM (inactive)	> 100 µM (inactive)	–	> 100 µM (inactive)	83.9 µM (inactive)	> 100 µM (inactive)	–	35.2 µM (inactive)	> 100 µM (inactive)	> 100 µM (inactive)	> 100 µM (inactive)	79.3 µM (inactive)	> 100 µM (inactive)	–	–	> 100 µM (inactive)	–	> 100 µM (inactive)	> 100 µM (inactive)
CCOc1ccc(-c2oc(/C=N/NS(=O)(=O)c3ccc(C)cc3)c([N+](=O)[O-])c2-c2ccc(OCC)cc2)cc1	12.3 µM (inactive)	15.6 µM (inactive)	2.65 µM (inactive)	2.61 µM (inactive)	19.9 µM (inactive)	26.1 µM (inactive)	10.9 µM (inactive)	–	11.3 µM (inactive)	16 µM (inactive)	2.58 µM (inactive)	14.4 µM (inactive)	8.85 µM (inactive)	13.5 µM (inactive)	4.03 µM (inactive)	17.9 µM (inactive)	11.5 µM (inactive)	14.9 µM (inactive)	14.4 µM (inactive)	–
CN(C)C(=O)Oc1ccc(C(=S)Nc2ccccc2)cc1Br	–	17.6 µM (inactive)	13.2 µM (inactive)	37.4 µM (inactive)	21.9 µM (inactive)	32.5 µM (inactive)	30.5 µM (inactive)	8.59 µM (inactive)	19.1 µM (inactive)	24.7 µM (inactive)	22.2 µM (inactive)	–	–	22.9 µM (inactive)	16.8 µM (inactive)	6.9 µM (inactive)	41.9 µM (inactive)	–	33.1 µM (inactive)	19.5 µM (inactive)
